Holding throughout (assay): NCI anticancer screen, dose series, 48 h
Experiment [1] concerns SK-MEL-28.
Experiment [2] deals with CAKI-1.
Experiment [3] concerns SK-OV-3.
In experiment [4] the test system is 786-0.
The test system of experiment [5] is UACC-257.
For experiment [6], the system named is M14.
Experiment [7] deals with OVCAR-5.
Experiment [8] concerns CCRF-CEM.
Experiment [9] relates to RPMI-8226.
In experiment [10] the test system is MOLT-4.
Experiment [11] deals with NCI-H460.
The test system of experiment [12] is MDA-MB-435.
For experiment [13], the system named is MCF7.
For experiment [14], the system named is Hs-578T.
The subject of experiment [15] is OVCAR-4.
For experiment [16], the system named is SNB-19.
The test system of experiment [17] is Malme-3M.
Experiment [18] relates to SF-295.
Experiment [19] deals with SF-268.

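A five-concentration, 48-hour dose response in 96-well plates underlies each endpoint, interpolated linearly between surrounding concentrations. Here, GI50 denotes the concentration required for 50% inhibition of growth.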 Activity calls are given as the source filed them. No stated cut-off is given here; in the data, active = GI50 up to about 1.1 µM and inactive = higher.

Consider `O=C(O)CN1CCN2CCCCCCCCN(CC1)CCN(CC(=O)O)CC2`, for which the GI50 in [1], in experiment [2], in experiment [3], in experiment [4], in [5] and in [6] was > 100 µM (inactive) each time. In addition, the GI50 in experiment [7], in experiment [8], in experiment [9], in experiment [10], in [11] and in experiment [12] was > 100 µM (inactive) each time. Also, the GI50 in [13], in experiment [14], in [15], in experiment [16], in experiment [17] and in experiment [18] was > 100 µM (inactive) throughout.

On to `CCCn1c(=O)c2nn3c(=O)n(CCC)c(=O)c3nn2c1=O`, for which the GI50 in experiment [1], in experiment [2], in experiment [3], in experiment [4], in experiment [5] and in [6] was > 100 µM (inactive) each time. In addition, the GI50 in [7], in [8], in experiment [9], in experiment [10], in experiment [11] and in [12] was > 100 µM (inactive) in each case. The GI50 in experiment [13], in experiment [14], in [15], in experiment [16], in experiment [19] and in experiment [17] was > 100 µM (inactive) in each case. Moreover, the GI50 in [18] is > 100 µM (inactive).

On to `COc1cc2c(cc1OC)C1C(O)C(OC)C=C3CC[N+](C)(C2)C31` (centres undefined), for which the GI50 in [1], in experiment [2], in [3], in experiment [4], in [5] and in [6] was > 100 µM (inactive) each time. Further, the GI50 in [7], in experiment [8], in [9], in experiment [10], in experiment [11] and in experiment [12] was > 100 µM (inactive) in each case. Moreover, the GI50 in [13], in experiment [14], in experiment [15], in experiment [16], in experiment [19] and in [17] was > 100 µM (inactive) each time. In addition, the GI50 in [18] was > 100 µM (inactive).

With `N#CC12C(=O)N3C(=NC(c4ccccc4)NC3c3ccccc3)C1(C#N)C(c1ccccc1)NC1=C2CCCC1` (centres undefined), the GI50 in [1], in [2], in experiment [3], in experiment [4], in experiment [5] and in [6] was > 100 µM (inactive) each time. The GI50 is > 100 µM (inactive) in experiment [7]; 30.3 µM (inactive) in experiment [8]; > 100 µM (inactive) in experiment [9]; > 100 µM (inactive) in [10]; > 100 µM (inactive) in experiment [11]; > 100 µM (inactive) in experiment [12]. In addition, the GI50 in experiment [13], in experiment [14], in experiment [15], in experiment [16], in experiment [19] and in [17] was > 100 µM (inactive) in each case. In experiment [18], the GI50 is > 100 µM (inactive).

With `O=C(C=P(c1ccccc1)(c1ccccc1)c1ccccc1)c1ccc(-c2ccc(F)cc2F)cc1`, the GI50 in experiment [1] was 2.95 µM (inactive); in [2], 2.12 µM (inactive); in experiment [3], 2.83 µM (inactive); in experiment [4], 3.56 µM (inactive); in experiment [5] it was 2.72 µM (inactive); in experiment [6], 2.42 µM (inactive). The GI50 is 2.96 µM (inactive) in experiment [7]; 2.61 µM (inactive) in experiment [8]; 1.87 µM (inactive) in experiment [9]; 1.83 µM (inactive) in [10]; 1.86 µM (inactive) in [11]; 2.28 µM (inactive) in [12]. For the same molecule, the GI50 in experiment [13] is 2.55 µM (inactive); in experiment [14], 3.97 µM (inactive); in experiment [15], 2.9 µM (inactive); in experiment [16] it was 4.73 µM (inactive); in experiment [19], 4.03 µM (inactive); in [17], 2.72 µM (inactive). Moreover, the GI50 in [18] is 3.15 µM (inactive).

As for `COc1cc(C2c3cc4c(cc3OC(N3CCOCC3)C2C)OCO4)cc(OC)c1OC` (centres undefined), the GI50 in experiment [1] was 17.2 µM (inactive); in experiment [2], 0.522 µM (active); in [3] it was 3.27 µM (inactive); in [4], 3.18 µM (inactive); in [5], 0.748 µM (active); in [6], 0.708 µM (active). In addition, the GI50 was 3.68 µM (inactive) in experiment [7]; 0.457 µM (active) in experiment [8]; 0.778 µM (active) in experiment [9]; 1.09 µM (active) in [10]; 1.34 µM (inactive) in experiment [11]; 0.179 µM (active) in experiment [12]. Moreover, the GI50 in experiment [13] was 0.51 µM (active); in experiment [14] it was 0.226 µM (active); in experiment [15], > 23.7 µM (inactive); in experiment [16], 0.838 µM (active); in experiment [19] it was 10.5 µM (inactive); in experiment [17], 3.79 µM (inactive). The GI50 in experiment [18] is 0.519 µM (active).

In the case of `CCOC(=O)c1ccc(/N=c2\oc3ccc(OC)cc3cc2-c2nc3ccccc3[nH]2)cc1`, the GI50 is > 100 µM (inactive) in experiment [1]; > 100 µM (inactive) in experiment [2]; 73.8 µM (inactive) in experiment [3]; > 100 µM (inactive) in experiment [4]; > 100 µM (inactive) in [5]; 65.3 µM (inactive) in experiment [6]. Also, the GI50 was 54.3 µM (inactive) in experiment [7]; > 100 µM (inactive) in experiment [8]; > 100 µM (inactive) in experiment [9]; > 100 µM (inactive) in experiment [10]; > 100 µM (inactive) in [11]; 30.5 µM (inactive) in experiment [12]. In addition, the GI50 was 36.5 µM (inactive) in [13]; 79.8 µM (inactive) in experiment [14]; > 100 µM (inactive) in [15]; 42.9 µM (inactive) in [16]; > 100 µM (inactive) in [19]; > 100 µM (inactive) in experiment [17]. The GI50 in experiment [18] is 62.8 µM (inactive).

Regarding `COc1c(OC)c(OC)c2c(=O)cc(-c3ccc(OC(C)C)cc3)oc2c1OC`, the GI50 in experiment [1] is 38.4 µM (inactive); in experiment [2], 20.5 µM (inactive); in experiment [3], > 35.7 µM (inactive); in experiment [4] it was > 34.1 µM (inactive); in [5], 25.6 µM (inactive); in experiment [6], 19.1 µM (inactive). In addition, the GI50 in experiment [7] is 18.8 µM (inactive); in experiment [8], 6.37 µM (inactive); in experiment [9] it was 3.75 µM (inactive); in [10], 3.87 µM (inactive); in experiment [11], 27.4 µM (inactive); in experiment [12], 26 µM (inactive). The GI50 is 18.3 µM (inactive) in experiment [13]; 23.1 µM (inactive) in experiment [14]; 16.5 µM (inactive) in [15]; > 38.9 µM (inactive) in experiment [16]; > 35.9 µM (inactive) in experiment [19]; 29.4 µM (inactive) in [17]. The GI50 in experiment [18] was 29.4 µM (inactive).

Turning to `O=C1C=CC(=O)N1c1ccc2c(c1)Cc1cc(NC(=O)C(F)(F)F)ccc1-2`, the GI50 is 18.1 µM (inactive) in experiment [1]; 16 µM (inactive) in experiment [2]; > 100 µM (inactive) in [3]; 5.58 µM (inactive) in experiment [4]; 18 µM (inactive) in [5]; 20.9 µM (inactive) in experiment [6]. The GI50 in experiment [7] is 16.7 µM (inactive); in experiment [8], 3.96 µM (inactive); in [9] it was 2.9 µM (inactive); in experiment [10], 4.25 µM (inactive); in experiment [11], > 100 µM (inactive); in experiment [12], 17.4 µM (inactive). The GI50 is 15.1 µM (inactive) in experiment [13]; 21.1 µM (inactive) in [14]; 17.3 µM (inactive) in [15]; > 47 µM (inactive) in experiment [16]; 19.1 µM (inactive) in experiment [19]; 19.8 µM (inactive) in [17]. Further, in experiment [18], the GI50 was > 100 µM (inactive).

In the case of `N#Cc1c(N2CCCC2)nsc1NCc1ccccc1`, the GI50 in [1], in [2], in [3], in [4], in experiment [5] and in experiment [6] was > 100 µM (inactive) in each case. Further, the GI50 in experiment [7], in [8], in experiment [9], in [10], in [11] and in experiment [12] was > 100 µM (inactive) each time. For the same molecule, the GI50 is > 100 µM (inactive) in experiment [13]; 60.4 µM (inactive) in experiment [14]; > 100 µM (inactive) in [15]; > 100 µM (inactive) in experiment [16]; > 100 µM (inactive) in [19]; > 100 µM (inactive) in experiment [17]. In [18], the GI50 is > 100 µM (inactive).

The values are drawn from ChEMBL document CHEMBL1201862, “PubChem BioAssay data set” (2004).
